{"source": "PubChem BioAssay AID1196", "about": "(NMMLSC, 2008)", "note": "The source made the active and inactive calls. The rule behind the calls is not given here."}
{"tested_on": "prostate cell differentiation activation, dose response", "experiment": "prostate cell differentiation inducers, concentration series – secondary assay, dose response (AID 1196)"}
{"smiles": "COc1cc2nc(N3CCN(C(=O)C4COc5ccccc5O4)CC3)nc(N)c2cc1OC", "note": "(stereo not given)", "EC50": "8.34 µM"}
{"smiles": "CCN1CCCC1CNC(=O)c1cc2c(-c3ccc(Cl)cc3)nn(C)c2s1", "note": "(stereo not given)", "EC50": "1.51 µM"}
{"smiles": "CCOc1cccc2cc(-c3cn4cc(C)ccc4n3)c(=O)oc12", "EC50": "3.03 µM"}
{"smiles": "COc1ccc(CCn2c(=N)c(C(=O)NCc3ccco3)cc3c(=O)n4ccccc4nc32)cc1", "EC50": "29.2 µM (inactive)"}
{"smiles": "CCN(CC)CCCNC(=O)c1cc2c(-c3ccc(Cl)cc3)nn(C)c2s1", "EC50": "2.85 µM"}
{"smiles": "O=C(NCCCN1CCN(c2cccc(Cl)c2)CC1)c1cccc(N2CCCC2=O)c1", "EC50": "17.1 µM (inactive)"}
{"smiles": "CCN1CCCC1CNC(=O)C1CCN(Cc2nc(-c3cccc(Br)c3)oc2C)CC1", "note": "(stereo not given)", "EC50": "1.16 µM"}
{"smiles": "Cn1c(C(=O)NCCCN2CCN(c3cccc(Cl)c3)CC2)cc2c(=O)n(C)c3ccccc3c21", "EC50": "11.1 µM (inactive)"}
{"smiles": "CCn1c(=O)cc(SCC(=O)NCCCN2CCN(c3ccccc3F)CC2)c2ccccc21", "EC50": "9.05 µM"}
{"smiles": "Cc1oc(-c2ccc(Cl)cc2)nc1CN1CCC(C(=O)N2CCN(Cc3ccccc3)CC2)CC1", "EC50": "1.81 µM"}
{"smiles": "Cc1ccc2c(c1)-c1c(cnn1CC(=O)Nc1ccccc1N1CCN(C)CC1)CO2", "EC50": "6.04 µM"}
{"smiles": "Cc1ccccc1CS(=O)(=O)CCC(=O)NCCCN1CCN(c2ccccc2F)CC1", "EC50": "7.46 µM"}
{"smiles": "Cc1ccccc1-c1nc(CN2CCCC(C(=O)NCCCN3CCOCC3)C2)c(C)o1", "note": "(stereo not given)", "EC50": "11.7 µM (inactive)"}
{"smiles": "CCN(CC)CCNC(=O)c1ccc(N2CCCCC2)c(NS(=O)(=O)c2ccc(C)cc2)c1", "EC50": "5.88 µM"}
{"smiles": "CCOC(=O)c1ccccc1NC(=O)Cn1c(-c2nonc2N)nc2ccccc21", "EC50": "0.218 µM"}
{"smiles": "Cn1c(=O)cc(SCC(=O)NCCCN2CCN(c3ccccc3F)CC2)c2ccccc21", "EC50": "9.37 µM"}
{"smiles": "Cc1ccc(C)c(N2CCN(CCCNC(=O)Cn3cc4c(n3)CCCCC4)CC2)c1", "EC50": "2.68 µM"}
{"smiles": "Cn1nc(-c2ccc(Cl)cc2)c2cc(C(=O)NCCCN3CCOCC3)sc21", "EC50": "5.34 µM"}
{"smiles": "CC1CCCCN1CCNC(=O)c1ccc2c(=O)n(CCc3ccccc3)c(=O)[nH]c2c1", "note": "(stereo not given)", "EC50": "16.2 µM (inactive)"}
{"smiles": "Cc1ccccc1-c1nc(CN2CCC(C(=O)NCc3cccnc3)CC2)c(C)o1", "EC50": "12.5 µM (inactive)"}
{"smiles": "CCCN(CCC)CCNC(=O)C1CCN(Cc2nc(-c3ccc(Cl)cc3)oc2C)CC1", "EC50": "6.5 µM"}
{"smiles": "COc1ccc2cc3cc(C(=O)Nc4ccccc4N4CCN(C)CC4)oc3nc2c1", "EC50": "3.87 µM"}
{"smiles": "CN(C)c1ccc(CNC2CC(C)(C)NC(C)(C)C2)cc1", "EC50": "5.53 µM"}
{"smiles": "CCCOc1ccccc1C1CC(=O)Nc2cc3c(cc21)OCO3", "note": "(stereo not given)", "EC50": "0.239 µM"}
{"smiles": "CCOc1ccccc1NC(=O)c1nc[nH]c1C(=O)Nc1ccccc1OCC", "EC50": "8.92 µM"}
{"smiles": "Cc1ccccc1-c1nc(CN2CCC(C(=O)NCCCN3CCOCC3)CC2)c(C)o1", "EC50": "5.47 µM"}
{"smiles": "Cc1oc(-c2ccc(Cl)cc2)nc1CN1CCC(C(=O)NCCCN2CCOCC2)CC1", "EC50": "3.44 µM"}
{"smiles": "CCN1CCN(CCNC(=O)C2CCN(Cc3nc(-c4ccc(Cl)cc4)oc3C)CC2)CC1", "EC50": "6.46 µM"}
{"smiles": "CCOc1ccc(NC(=O)COc2nsnc2N2CCCCC2)cc1", "EC50": "0.277 µM"}
{"smiles": "Cc1ccc(OCC(O)Cn2c(=N)n(CCN3CCCCC3)c3ccccc32)cc1", "note": "(stereo not given)", "EC50": "1.47 µM"}
{"smiles": "COc1ccc(-c2ccc(-c3noc(-c4ccccc4)n3)c(OC)n2)cc1", "EC50": "8.46 µM"}
{"smiles": "Cn1c(=O)cc(OCC(=O)NCCCN2CCN(c3ccccc3F)CC2)c2ccccc21", "EC50": "27.8 µM (inactive)"}
{"smiles": "COc1ccccc1NC(=O)c1nc[nH]c1C(=O)Nc1ccccc1OC", "EC50": "2.67 µM"}
{"smiles": "CCN(CC)CCNC(=O)c1cc2c(-c3ccc(Cl)cc3)nn(C)c2s1", "EC50": "2.48 µM"}
{"smiles": "CCN1CCN(c2cc(C)c3cc(NC(=O)c4ccc(Br)o4)ccc3n2)CC1", "EC50": "3.37 µM"}
{"smiles": "COc1ccc(Nc2nc(N)nc(CN3CCC(Cc4ccccc4)CC3)n2)cc1", "EC50": "2.89 µM"}
{"smiles": "CCN1CCN(C(c2cccs2)C(C)NS(=O)(=O)c2ccc(Br)cc2)CC1", "note": "(stereo not given)", "EC50": "16.8 µM (inactive)"}
{"smiles": "COc1ccc(-c2noc(-c3cc(Cl)ccc3Cl)n2)cc1OC", "EC50": "10.3 µM (inactive)"}
{"smiles": "CCN1CCN(c2ncc(C(=O)Nc3cc(Cl)c(OC)cc3OC)c3ccccc23)CC1", "EC50": "5.27 µM"}
{"smiles": "Cc1ccc(Nc2cc(=O)n(C3CCCCC3)c(=O)[nH]2)cc1C", "EC50": "0.0873 µM"}
{"smiles": "CN(C)CCCN1c2ccccc2CCc2ccc(Cl)cc21", "EC50": "1.46 µM"}
{"smiles": "CCn1c(=O)cc(SCC(=O)NCCN2CCN(Cc3ccccc3)CC2)c2ccccc21", "EC50": "20.4 µM (inactive)"}
{"smiles": "N=c1n(CCN2CCCCC2)c2ccccc2n1CC(O)COc1ccccc1", "note": "(stereo not given)", "EC50": "2.21 µM"}
{"smiles": "Cc1cc(N2CCN(C)CC2)nc2ccc(NC(=O)c3ccc(Br)o3)cc12", "EC50": "2.21 µM"}
{"smiles": "Cc1ccccc1-c1nc(CN2CCC(C(=O)NCCCN3CC(C)CC(C)C3)CC2)c(C)o1", "note": "(stereo not given)", "EC50": "1.27 µM"}
